Experiments:
dermal Arthus reaction = test: reverse passive Arthus assay in rats (dermal lesion); type: in vivo, Male Sprague-Dawley rats; conditions: 100 mg/kg, oral, 30 min before anti-B.S.A.; lesion measured at four hours
Experimental: Proc. 35, 774 (1976). Each compound was administered orally to a group of four animals.
The […] passive Arthus reaction test in rats is conducted as follows: Male Sprague-Dawley rats weighing approximately 130-160 g. are used, 4 rats per group. All animals are injected intravenously with 0.5 ml. 0.075% Bovine Serum Albumin (B.S.A.)+2% Evans Blue solution. Each rat then receives an oral dose of drug; one drug is administered per group.
Thirty minutes subsequent to drug dosing, each animal is injected intradermally with 0.05 ml. 1.44% Anti-B.S.A. into the dorsal skin. Four hours later the animals are sacrificed, the dorsal skin reflexed, and the lesion excised. Two perpendicular diameters of each lesion are measured. The average diameters of the lesions from the treated groups are compared with the average diameters from the control group to determine any drug effect.

carrageenin pleurisy = test: modification of the carrageenin pleurisy assay (reduction in accumulation of exudate volume and leukocytes); type: in vivo; conditions: for % Inhibition Cells: leukocytes
From the text: The compounds of the present invention have anti-inflammatory activity and inhibitory effect against Type III hypersensitivity reaction. These compounds are useful for the therapy of rheumatoid arthritis, other inflammatory conditions, Type III hypersensitivity diseases and in diseases in which polymorphonuclear leukocytes accumulation contributes to the pathology. The anti-inflammatory activity of these compounds was established by using a modification of the carrageenin pleurisy assay described by Vinegar et al. Proc. Soc. Exp. Biol. Med. 143:711 (1973).

| SMILES | % Inhibition of lesion of dermal Arthus reaction (dermal Arthus reaction) | % Inhibition Volume exudates (carrageenin pleurisy; Dose 60 (dose unit not given)) | % Inhibition Cells (carrageenin pleurisy; Dose 60 (dose unit not given)) | % Inhibition Volume exudates (carrageenin pleurisy; Dose 100 (dose unit not given)) | % Inhibition Cells (carrageenin pleurisy; Dose 100 (dose unit not given)) |
| --- | --- | --- | --- | --- | --- |
| N=C1CCN(c2ccc3ccccc3n2)N1 [1-(2'-quinolinyl)-3-iminopyrazolidine, 1-(2'-quinolinyl)-3-imino-pyrazolidine] | 72% | – | – | – | – |
| N=C1CCN(c2cnc3ccccc3c2)N1 [1-(3'-quinolinyl)-3-iminopyrazolidine, 1-(3'-Quinolinyl)-3-iminopyrazolidine] | 37% | 86% | 71% | – | – |
| N=C1CCN(c2ccnc3cc(Cl)ccc23)N1 [1-(7'-chloro-4'-quinolinyl)-3-imino pyrazolidine] | 53% | – | – | – | – |
| CCCCC1C(=O)N(c2ccccc2)N(c2ccccc2)C1=O [Phenylbutazone, reference compound] | – | – | – | 59% | 13% |

Reference: patent US4407803A, “Antiinflammatory 1-(quinolinyl)-2-pyrazoline derivatives” (Abbott Laboratories, priority 1981, dated 1983)
